We go through 25 compounds from PubChem BioAssay (NCI).

Some test systems named below: EKVX NSCLC; OVCAR-3 ovarian; SF-268 CNS; OVCAR-4 ovarian; CAKI-1 renal; HS 578T breast; MDA-N; SN12C renal; HOP-92 NSCLC.
Holding throughout (experiment): NCI anticancer screen, dose series, 48 h

Each structure is given as a SMILES string.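 Step 1: Grow cells in 96-well plates. Step 2: Expose to compound for 48 hours at 5 concentrations. Step 3: Interpolate endpoints linearly; if unreached, use highest concentration. Here, GI50 denotes the concentration required for 50% inhibition of growth. Definition used: TGI = concentration required for complete inhibition of growth.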

Regarding `CCC(C(=O)C(=O)OC)P1(=O)OC(C)(C)CN1C(C)(C)C` (configuration not stated), the TGI in the experiment with EKVX NSCLC, in the experiment with OVCAR-3 ovarian, with SF-268 CNS, in the experiment with OVCAR-4 ovarian and in the experiment with CAKI-1 renal was over 100 µM throughout.

On to `C1=C\SS/C=C\SS/1`, for which the TGI in the experiment on HS 578T breast is over 100 µM; with EKVX NSCLC, over 100 µM; in the experiment with MDA-N, over 100 µM; with SN12C renal, over 100 µM; in the experiment with SF-268 CNS, over 100 µM; in the experiment on HOP-92 NSCLC, 97.3 µM. Also, the TGI in the experiment with OVCAR-4 ovarian is over 100 µM.

For `N#Cc1nc(NC(=O)c2ccccc2C(=O)O)c(C#N)[nH]1`, the TGI in the experiment on HS 578T breast, with EKVX NSCLC, with MDA-N, in the experiment with SN12C renal, with OVCAR-3 ovarian and with SF-268 CNS was over 100 µM in each case. In addition, the TGI in the experiment on HOP-92 NSCLC and with CAKI-1 renal was over 100 µM throughout.

Regarding `OCc1ccc2c(c1)CC1(Cc3ccc(/C=N/O)cc3C1)C2` (configuration not stated), the TGI with HS 578T breast was over 26.4 µM; in the experiment on EKVX NSCLC it was over 100 µM; in the experiment with SN12C renal, over 54.5 µM; with OVCAR-3 ovarian, 17.1 µM; with SF-268 CNS it was over 100 µM; in the experiment with HOP-92 NSCLC, 59.5 µM. Further, the results for the TGI in the experiment with OVCAR-4 ovarian and with CAKI-1 renal were over 61.7 µM and over 89.7 µM, respectively.

Consider `NS(=O)(=O)c1cccc(NC(=S)NC(=O)Nc2ccc(Cl)c(Cl)c2)c1`, for which the TGI amounted to 45.6 µM in the experiment with HS 578T breast; 38.2 µM with MDA-N; 32.6 µM with SN12C renal; 56.4 µM with SF-268 CNS; 54 µM in the experiment on HOP-92 NSCLC; 76.9 µM in the experiment on OVCAR-4 ovarian.

`O=C(N/N=C/c1ccc(Br)cc1)N/N=C/c1ccc(Br)cc1`: the TGI in the experiment on HS 578T breast was 10.8 µM; in the experiment on EKVX NSCLC it was 31.3 µM; in the experiment on MDA-N, 37.5 µM; in the experiment on SN12C renal it was 17.4 µM; with OVCAR-3 ovarian it was 14.9 µM; in the experiment with SF-268 CNS, 24 µM. The figures for the TGI in the experiment with OVCAR-4 ovarian and in the experiment with CAKI-1 renal were 5.11 µM and 18 µM, respectively.

For `CC(=O)OC1C(COC(=O)c2ccccc2)OC(Nc2ncc(-c3ccc(Br)cc3)s2)C(OC(=O)c2ccccc2)C1OC(=O)c1ccccc1` (configuration not stated), the TGI in the experiment on HS 578T breast, in the experiment on EKVX NSCLC, in the experiment with MDA-N, with SN12C renal, with OVCAR-3 ovarian and in the experiment on SF-268 CNS was over 100 µM each time. Moreover, the TGI with HOP-92 NSCLC and in the experiment with OVCAR-4 ovarian was over 100 µM each time.

For `CCOP(=O)(/C=C\n1ccc(N)nc1=O)OCC`, the TGI in the experiment with HS 578T breast, in the experiment with EKVX NSCLC, in the experiment with MDA-N, in the experiment on SN12C renal, with OVCAR-3 ovarian and in the experiment with SF-268 CNS was over 100 µM throughout. For the same compound, the TGI with OVCAR-4 ovarian and with CAKI-1 renal was over 100 µM in each case.

With `COc1cc2c(c(O)c1OC)C(=O)C(Cc1ccc(O)cc1)CO2` (configuration not stated), the TGI was 36.5 µM with HS 578T breast; over 100 µM in the experiment with SN12C renal; 26.4 µM in the experiment on OVCAR-3 ovarian; over 100 µM in the experiment with SF-268 CNS; over 100 µM in the experiment on HOP-92 NSCLC; over 100 µM in the experiment with OVCAR-4 ovarian. The TGI in the experiment with CAKI-1 renal was 75.9 µM.

For `COc1ccc(CC2COc3cc(O)cc(O)c3C2=O)cc1O` (configuration not stated), the TGI in the experiment on HS 578T breast was over 100 µM; in the experiment on EKVX NSCLC, over 100 µM; in the experiment on SN12C renal it was over 100 µM; with OVCAR-3 ovarian, 6.87 µM; in the experiment with SF-268 CNS it was over 100 µM; in the experiment on HOP-92 NSCLC it was over 100 µM. Also, the TGI in the experiment on OVCAR-4 ovarian and with CAKI-1 renal was over 100 µM in each case.

Consider `COc1ccc(C2c3cc4c(cc3OC(N3CCOCC3)C2C)OCO4)c(OC)c1OC` (configuration not stated), for which the TGI with HS 578T breast was 19.2 µM; with EKVX NSCLC, over 100 µM; with MDA-N, 8.42 µM; with SN12C renal it was over 100 µM; in the experiment on OVCAR-3 ovarian, 45.6 µM; in the experiment with SF-268 CNS, 79.8 µM. Moreover, the TGI in the experiment with CAKI-1 renal amounted to 9.74 µM.

Consider `O=c1cc(N2CCCC2)[nH]c(=O)n1-c1ccccc1`, for which the TGI in the experiment on EKVX NSCLC, in the experiment on SN12C renal, in the experiment on HOP-92 NSCLC, in the experiment on OVCAR-4 ovarian and in the experiment with CAKI-1 renal was over 100 µM throughout.

As to `CCOC(=O)C1CCC(=O)N1C(=O)c1ccccc1` (configuration not stated), the TGI in the experiment with HS 578T breast, in the experiment with EKVX NSCLC, in the experiment on SN12C renal, with OVCAR-3 ovarian, in the experiment on SF-268 CNS and in the experiment with HOP-92 NSCLC was over 100 µM in each case. The compound further yielded a TGI in the experiment on CAKI-1 renal of over 100 µM.

Turning to `CCOC(=O)c1nc2cc(C(F)(F)F)ccc2nc1Nc1ccc(C(=O)NC(C(=O)OCC)C(=O)OCC)cc1`, the TGI is 37.5 µM in the experiment on HS 578T breast; 66.2 µM with EKVX NSCLC; 47.2 µM in the experiment on SN12C renal; over 100 µM with OVCAR-3 ovarian; 53.6 µM in the experiment on SF-268 CNS; 58.8 µM with HOP-92 NSCLC. The TGI with OVCAR-4 ovarian amounted to 33.1 µM; in the experiment with CAKI-1 renal, 37 µM.

Consider `COC(=O)C1(Cc2ccc3c(c2)CCC3)Cc2ccccc2C1`, for which the TGI in the experiment on HS 578T breast, in the experiment on EKVX NSCLC, in the experiment with MDA-N, in the experiment on SN12C renal, in the experiment with OVCAR-3 ovarian and with SF-268 CNS was over 100 µM in each case. Also, the TGI is 62.8 µM in the experiment on OVCAR-4 ovarian and over 100 µM in the experiment with CAKI-1 renal.

On to `COc1ccc(CN2C3CC2CN(c2ccc(-c4cc(OCC(C)(C)O)cn5ncc(C#N)c45)cn2)C3)cn1`, for which the GI50 in the experiment with HS 578T breast was 2010 nM; in the experiment on EKVX NSCLC, 6.9 µM; in the experiment with SN12C renal, 2950 nM; with OVCAR-3 ovarian, over 100 µM; in the experiment on SF-268 CNS, 4.6 µM; in the experiment on HOP-92 NSCLC, 2120 nM. Also, the figures for the GI50 in the experiment on OVCAR-4 ovarian and in the experiment with CAKI-1 renal were 3.63 µM and 4.78 µM, respectively. In addition, the TGI in the experiment with HS 578T breast is 7.12 µM; in the experiment with EKVX NSCLC, over 100 µM; in the experiment on SN12C renal it was over 100 µM; with OVCAR-3 ovarian, over 100 µM; in the experiment with SF-268 CNS, over 100 µM; with HOP-92 NSCLC, 7.35 µM. The TGI with OVCAR-4 ovarian and with CAKI-1 renal was over 100 µM each time.

Turning to `CO[C@]12C[C@H](CNC(=O)c3ccc[nH]3)O[C@H]1NC(=O)N2`, the TGI with HS 578T breast, with EKVX NSCLC, in the experiment on SN12C renal, with OVCAR-3 ovarian, in the experiment on SF-268 CNS and in the experiment on HOP-92 NSCLC was over 100 µM in each case. This compound also yielded a TGI with CAKI-1 renal of over 100 µM.

Consider `C[C@H]1SC(c2ccc(Cl)cc2Cl)N(NC(=O)c2ccncc2)C1=O` (some centres not stated), for which the TGI with HS 578T breast is over 100 µM; in the experiment on EKVX NSCLC, 98.8 µM; in the experiment on MDA-N, 57.5 µM; with SN12C renal, over 100 µM; with OVCAR-3 ovarian, over 100 µM; in the experiment on SF-268 CNS, 72.3 µM. Besides, the TGI in the experiment with HOP-92 NSCLC and in the experiment on CAKI-1 renal was over 100 µM each time.

`CC(=O)OC(Cn1cncn1)(Cn1cncn1)c1ccc(Cl)cc1Cl`: the TGI in the experiment with HS 578T breast, in the experiment with EKVX NSCLC, in the experiment on OVCAR-3 ovarian, in the experiment on SF-268 CNS, with HOP-92 NSCLC and in the experiment with OVCAR-4 ovarian was over 100 µM throughout. The compound also returned a TGI in the experiment on CAKI-1 renal of over 100 µM.

With `O=c1cc(-c2ccccc2)oc2c(-c3cc(Cl)cc4c(=O)cc(-c5ccccc5)oc34)cc(Cl)cc12`, the TGI in the experiment on HS 578T breast is over 100 µM; in the experiment with EKVX NSCLC, over 100 µM; with MDA-N, over 100 µM; with SN12C renal, over 100 µM; in the experiment on OVCAR-3 ovarian, 80.5 µM; with SF-268 CNS, over 100 µM. Moreover, the TGI with OVCAR-4 ovarian was over 100 µM.

Turning to `CC(C(=O)O)C(C)(O)C(=O)O` (configuration not stated), the TGI with HS 578T breast, in the experiment with EKVX NSCLC, in the experiment on MDA-N, in the experiment on SN12C renal, in the experiment with OVCAR-3 ovarian and in the experiment on SF-268 CNS was over 100 µM each time. In addition, the TGI with OVCAR-4 ovarian and in the experiment on CAKI-1 renal was over 100 µM each time.

On to `COC(=O)C1=Nc2c(C)nn(-c3ccccc3)c2N=C(c2ccccc2)C1`, for which the TGI with HS 578T breast, in the experiment with MDA-N, in the experiment on SN12C renal, with OVCAR-3 ovarian, in the experiment with SF-268 CNS and in the experiment with HOP-92 NSCLC was over 10 µM each time. Further, the TGI with OVCAR-4 ovarian and in the experiment on CAKI-1 renal was over 10 µM each time.

For the compound `O=c1[nH]c(=O)n(C2CC(O)C(CO)O2)cc1OCc1ccccc1` (configuration not stated), the TGI in the experiment on HS 578T breast, in the experiment on EKVX NSCLC, with MDA-N, in the experiment on SN12C renal, in the experiment on OVCAR-3 ovarian and in the experiment with SF-268 CNS was over 100 µM each time. The TGI in the experiment with OVCAR-4 ovarian and in the experiment on CAKI-1 renal was over 100 µM throughout.

For the compound `CNC(=O)CCCNC(=O)CCCC(=O)N(C)C`, the TGI in the experiment with HS 578T breast, with EKVX NSCLC, with MDA-N, in the experiment with SN12C renal, in the experiment with OVCAR-3 ovarian and in the experiment on SF-268 CNS was over 100 µM in each case. In addition, the TGI in the experiment with HOP-92 NSCLC and in the experiment on CAKI-1 renal was over 100 µM throughout.

Regarding `C=C1c2nc3ccccc3n2C=C(c2ccc(Cl)cc2)N1c1ccc(OC)cc1`, the TGI in the experiment with EKVX NSCLC stood at 25.9 µM; in the experiment on MDA-N it was 45.7 µM; in the experiment on SN12C renal it was 60 µM; in the experiment on OVCAR-3 ovarian, 25.7 µM; in the experiment on HOP-92 NSCLC, 43.6 µM; in the experiment with OVCAR-4 ovarian it was 46.2 µM. In the experiment with CAKI-1 renal, the TGI amounted to 19.1 µM.
